The values that follow come from publication PMC8587750, “Structural Optimization and Biological Activity of Pyrazole Derivatives: Virtual Computational Analysis, Recovery Assay and 3D Culture Model as Potential Predictive Tools of Effectiveness against Trypanosoma cruzi” (Molecules, 2021).

The test system of series [1] is trypomastigote forms of T. cruzi. On the set-up: method as in PMID 31434040. To be noted: read-out: IC50 against trypomastigotes; cited from earlier work.
The test system of series [2] is T. cruzi-infected cardiac microtissue. On the set-up: method as in PMID 32564978. The conditions noted are these: 5 nM; cited from earlier work.
For series [3], the system named is intracellular amastigotes of T. cruzi. The experiment in a line: Activity against intracellular amastigotes in infected Vero cells (Dm28c-Luc, 72 h). Format: cell-based, Trypanosoma cruzi. To be noted: for IC90: read-out: Trypanocidal Activity Intracellular Amastigotes IC90. A digest of the protocol: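 Vero cells (2D and 3D cultures) infected with luciferase-expressing Dm28c trypomastigotes at 10:1 parasites/host cell, then treated 72 h at 37 °C with 0.04–100 µM compound, DMSO <1% v/v. Viability read by luminescence after 300 µg/mL luciferin; IC50/IC90 by linear regression, at least three independent assays in duplicate.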

Series [4] has as its system intracellular parasites in T. cruzi-infected microtissue. The experiment in a line: 3D-microtissue-based phenotypic screening (T. cruzi-infected Vero spheroids). The format is cell-based, Trypanosoma cruzi. The conditions noted are these: 72 h treatment; Bz 100 µM. As for the experimental part:
Vero cells were seeded at a density of 2 × 10^5 cells/well in a 96-well U-bottom plate previously coated with agarose (1%). The 3D cultures, adapted from, were cultivated for 4 days in RPMI 1640 medium supplemented with 10% FBS and L-glutamine for complete 3D microtissue formation. The 3D culture model was used as a tool to evaluate the effectiveness of promising derivatives in eliminating intracellular parasites in the microtissue.
The 3D-microtissue-based phenotypic screening was performed with the promising pyrazole derivatives. […] At the end of the treatment, the 3D cultures supernatants were removed, and luciferin (300 μg/mL) was added to the spheroids. The luminescent signal was read on the Glomax-Multi Detection reader (Promega Corporation, Madison, WI, USA). Bz (100 µM) and DMSO (≤1%) were used as positive and negative control, respectively. The IC50 value was calculated by linear regression. At least three independent assays were performed in quadruplicate.

A short description of series [5]: Cytotoxicity in vitro assay (ATP, CellTiter Glo, 72 h). The format is cell-based. To be noted: African green monkey, Vero cells. As for the experimental part:
Vero cells, obtained from the Rio de Janeiro Cell Bank (BCRJ code 0245), were cultured in RPMI-1640 supplemented with 10% fetal bovine serum (FBS) and 1 mM L-glutamine, as previously described. Vero cells were used for drug screening assays and to obtain trypomastigote forms of T. cruzi.
Vero cells were used as a cellular model to analyze the toxic effect of pyrazole derivatives, series 1(a–l), 2(a–l), 3(a–n), 4(a–c), and 5(a–c), and Benznidazole (Bz) on mammalian cells. Briefly, the cells, plated on 96-well white opaque microplate (1.5 × 10^4 cells/well), were treated for 72 h at 37 °C with a wide range concentration (500–1.95 µM) of the pyrazole derivatives. The cell viability was determined by measuring ATP levels using the CellTiter Glo Kit (Promega Corporation, Madison, WI, EUA) followed by reading the luminescent signal on the Glomax-Multi Detection plate reader (Promega Corporation, Madison, WI, EUA)). All treatments and controls were performed at a low concentration of DMSO (≤1%). The 50% cytotoxic concentration values (CC50; the concentration of the compound that reduces 50% of the cell viability) were estimated by linear regression analysis. Three independent assays were performed in duplicate.

In series [6] the test system is trypomastigote forms of T. cruzi. The experiment in a line: Phenotypic screening against T. cruzi trypomastigotes (Dm28c-Luc, luciferase viability, 24 h). The format is cell-based, Trypanosoma cruzi. To be noted: for Trypomastigotes SI: CC50 of Vero cells/IC50 of trypomastigote; for IC50 / IC90: Trypanosoma cruzi, Dm28c-Luc, 24 h; for IC50: read-out: Trypanocidal Activity Trypomastigotes IC50; for IC90: read-out: Trypanocidal Activity Trypomastigotes IC90. From the text: T. cruzi Dm28c clone genetically modified to express luciferase, kindly provided by Dr. Cristina Henriques from Oswaldo Cruz Institute–Fiocruz, was used in the drug assays. Trypomastigotes were harvested from T. cruzi-infected Vero cultures supernatants at 4th days post-infection (dpi) and used in the phenotypic screening assay. For intracellular amastigotes assays, Vero cells (2D and 3D cultures) were infected at a ratio of 10:1 parasites/host cells.
The phenotypic compound screening was performed using transgenic T. cruzi parasites expressing the firefly luciferase (Dm28c-Luc). Trypomastigotes (1 × 10^6 parasites/well) were treated for 24 h at 37 °C with the pyrazole derivatives and Bz (0.04–100 μM), followed by incubation with luciferin substrate (300 µg/mL) to determine parasite viability through luciferase activity. The concentration that reduces the number of viable parasites by 50% (IC50) or 90% (IC90) was calculated by linear regression. The luminescent signal was read on a Glomax-Multi Detection plate reader (Promega Corporation, Madison, WI, EUA)). At least three independent assays were performed in duplicate.

Series [7] relates to T. cruzi cysteine protease. In words: Cysteine protease activity of trypomastigote total protein extracts (Z-FR-AMC). The format is biochemical, Trypanosoma cruzi. The conditions noted are these: 300 µM, Z-FR-AMC 60 µM, pH 5.0, 37 °C. As for the experimental part: Total protein extract from trypomastigotes (Dm28c-Luc; 10^8 parasites/mL) were extracted with lysis buffer. Cysteine protease activity of extracts (5 μg) was measured in acetate buffer using fluorogenic peptide substrate (60 μM of 7-Amino-4-Methylcoumarin hydrochloride, CBZ-L-Phenylalanyl-L-Arginine amide (Z-FR-AMC). Total protein extracts were incubated for 45 min at room temperature with the compounds and changes in relative fluorescence units monitored using a SpectraMaxM2e spectrophotometer (Molecular Devices, Sunnyvale, CA, USA) for 1 h with excitation at 370 nm and emission at 460 nm. The inhibition assays were performed by coincubation with different compounds (3g, 3j, and 3m) and concentrations (300–11.11 µM) and transepoxysuccinyl-L-leucylamido-(4-guanidino) butane (E-64). Additional control was carried out with DMSO (≤1%). Enzymatic activity was expressed in µmol/min/mg of protein and the residual activity in percentage.
Figure 6 Inhibition of T. cruzi cysteine protease activity. Total protein extracts of trypomastigotes (5 µg), was incubated at different concentrations (300–11.11 µM) of compounds E64 (black circle), 3g (black triangle), 3j (black square) and 3m (white circle) in enzyme activation buffer pH 5.0, at 37 °C. Enzyme activity was measured using a specific fluorogenic peptide substrate Z-FR-AMC (60 µM). Results are presented as percentage of inhibition of enzyme activity (%) and represent the mean and standard deviation (±) of three independent experiments.

Series [8] has as its system T. cruzi (Dm28c-Luc) in Vero cells. In words: Reversibility (washout) assay, parasite recrudescence in infected Vero cells. To be noted: 72 h treatment at IC90, washout, 72 h without drug. The format is cell-based, Trypanosoma cruzi. As for the experimental part:
To address the question of whether the treatment with 3g, 3j, and 3m leads to parasite clearance, an intracellular T. cruzi washout assay was performed as a strategy for monitoring the parasite recrudescence. In this approach, cultures of infected Vero cells (Dm28c-Luc) were treated for 72 h at IC90 and 50 µM (2 to 5-fold de IC90) concentrations of the promising compounds 3g, 3j, and 3m and, after washing the cell monolayers, the cultures were kept for another 72 h without drug treatment. Both cell monolayers and their supernatants were evaluated for the presence of viable parasites after luciferin addition. All derivatives analyzed relapsed at the IC90 concentration (Figure 3). However, treatment with 3g, 3j, and 3m led to a significant reduction in the parasite load, reaching a decrease of 4.5-, 1.9-, and 8.7-fold, respectively, when compared to untreated infected Vero cells cultures (Figure 3). The emergence of trypomastigotes in the supernatant, at IC90 concentration, was observed three days after removal of drug pressure, but with a significant reduction in viable parasites compared to untreated cultures (Figure 3). Parasite recrudescence was not seen in 100 µM Bz treatment (Figure 3).
The washout assay, adapted from, was performed to evaluate the promising compounds efficacy. […] After successive washing, the cultures were maintained for an additional 72 h at 37 °C in RPMI 1640 medium supplemented with 10% SFB in the absence of the compound. Luciferin (300 µg/mL) was added separately to the culture supernatant, previously removed, and the cell monolayer. The luminescent signal was read on the Glomax-Multi Detection reader (Promega Corporation, Madison, WI, USA). Bz (100 µM) and DMSO (≤1%) were used as positive and negative reaction controls, respectively.

The mark [9] stands for this setting: Trypanosoma cruzi, Vero, negative log of the IC50 value in molar, read-out: Intracellular Amastigotes pIC50 (converted).
[10] abbreviates: Trypanosoma cruzi, Vero cells infected with Dm28c-Luc, 72 h.

Where two headings read alike, the source gives them in different places.

Regarding “5-amino-1-aryl-4-(4,5-dihydro-1H-imidazol-2-yl)-1H-pyrazole [hit compound]”, the IC50 in series [1] is 9.5 ± 1.2 µM.
With `CC[C@@H]([C@H](C)O)n1ncn(-c2ccc(N3CCN(c4ccc(OC[C@@H]5CO[C@@](Cn6cncn6)(c6ccc(F)cc6F)C5)cc4)CC3)cc2)c1=O` [Posaconazole, posaconazole], in series [2], the “reduction of parasite load” value is listed as 50%.
For the compound `Clc1ccc(-n2cc(C3=NCCN3)cn2)cc1` [Compound 3g, 1-(4-chlorophenyl)-4-(4,5-dihydro-1H-imidazol-2-yl)-1H-pyrazole], the IC50 in series [3] (Trypanosoma cruzi, Vero, 72 h, Vero cells infected with Dm28c-Luc, 72 h, read-out: Trypanocidal Activity Intracellular Amastigotes IC50) was below 10 µM; in series [3] (setting [9]), 6.03 µM; in series [3] (Vero cells infected with Dm28c-Luc, 72 h, read-out: Trypanocidal Activity Intracellular Amastigotes IC50), 6.09 ± 0.52 µM; in series [6], 64.6 ± 1.56 µM. Further, the values for the IC90 in series [3] (setting [10]) and in series [6] were 26.1 ± 14.3 µM and above 100 µM, respectively. In addition, the “viability of intracellular parasites in microtissue, luminescence intensity (ALU)” value in series [4] is on record as 36,130 ± 5764 ALU. The same compound showed a CC50 at 72 h in series [5] of 277 ± 15.8 µM. The “Trypomastigotes SI” value in series [6] is 4.27. Further, the “maximum inhibition of cysteine protease enzymatic activity” value in series [7] is reported as 26%. Besides, the “decrease of parasite load compared to untreated infected Vero cell cultures” value in series [8] turned out to be 4.5 fold.
As to `Brc1ccc(-n2cc(C3=NCCN3)cn2)cc1` [Compound 3j, 1-(4-bromophenyl)-4-(4,5-dihydro-1H-imidazol-2-yl)-1H-pyrazole], the IC50 in series [3] (setting [9]) was 2.75 µM; in series [6], 57.7 ± 3.14 µM. Further, the IC90 in series [3] (setting [10]) came to 9.67 ± 0.3 µM; in series [6], 95.3 ± 5.43 µM. Further, the “viability of intracellular parasites in microtissue, luminescence intensity (ALU)” value in series [4] was 39,001 ± 9952 ALU. The same compound displayed a CC50 at 72 h in series [5] of 309 ± 34.3 µM. Moreover, the “Trypomastigotes SI” value in series [6] is recorded as 5.36. For the same compound, the “maximum inhibition of cysteine protease enzymatic activity” value in series [7] came out at 26%. Further, the “decrease of parasite load compared to untreated infected Vero cell cultures” value in series [8] was determined as 1.9 fold.
